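These data come from cells grown in 96-well plates and exposed to compound for 48 hours at five concentrations. Abbreviation: GI50, concentration required for 50% inhibition of growth.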 Calls of active or inactive are those of the source. Rule as the data show it: active = GI50 up to about 1.1 µM and inactive = higher.
Experiments:
Experiment in all cases: NCI tumour cell line growth inhibition, 48 h
UACC-257 = test system: UACC-257
HCC 2998 = test system: HCC 2998
OVCAR-8 = test system: OVCAR-8
OVCAR-4 = test system: OVCAR-4
SK-OV-3 = test system: SK-OV-3
RPMI-8226 = test system: RPMI-8226
UACC-62 = test system: UACC-62
HOP-62 = test system: HOP-62
HOP-92 = test system: HOP-92
SR = test system: SR
SK-MEL-2 = test system: SK-MEL-2
HCT-116 = test system: HCT-116
NCI-H460 = test system: NCI-H460
MDA-N = test system: MDA-N
MDA-MB-231 = test system: MDA-MB-231
NCI/ADR-RES = test system: NCI/ADR-RES
MCF7 = test system: MCF7
MDA-MB-435 = test system: MDA-MB-435

| Compound | GI50 (UACC-257) | GI50 (HCC 2998) | GI50 (OVCAR-8) | GI50 (OVCAR-4) | GI50 (SK-OV-3) | GI50 (RPMI-8226) | GI50 (UACC-62) | GI50 (HOP-62) | GI50 (HOP-92) | GI50 (SR) | GI50 (SK-MEL-2) | GI50 (HCT-116) | GI50 (NCI-H460) | GI50 (MDA-N) | GI50 (MDA-MB-231) | GI50 (NCI/ADR-RES) | GI50 (MCF7) | GI50 (MDA-MB-435) |
| --- | --- | --- | --- | --- | --- | --- | --- | --- | --- | --- | --- | --- | --- | --- | --- | --- | --- | --- |
| O=c1c2cc3c(cc2c2cccc4c2n1CCC4)OCO3 | 33.1 µM (inactive) | 26.6 µM (inactive) | 48.1 µM (inactive) | 88.9 µM (inactive) | 55.3 µM (inactive) | 30.2 µM (inactive) | 46.2 µM (inactive) | 56.8 µM (inactive) | 55.5 µM (inactive) | 29.2 µM (inactive) | > 100 µM (inactive) | 23.4 µM (inactive) | 37.1 µM (inactive) | – | – | – | – | – |
| C/C(=N\NC(=S)N1CCCCCC1)c1nccnc1C | < 0.01 µM (active) | 7.36 µM (inactive) | < 0.01 µM (active) | 0.134 µM (active) | – | 0.159 µM (active) | < 0.01 µM (active) | 35.3 µM (inactive) | – | – | 12.8 µM (inactive) | – | – | – | – | – | – | – |
| CCCCCCCCCCCCCC(=O)NCC(OCC)OCC | > 100 µM (inactive) | > 100 µM (inactive) | > 100 µM (inactive) | > 100 µM (inactive) | > 100 µM (inactive) | – | > 100 µM (inactive) | > 100 µM (inactive) | > 100 µM (inactive) | – | > 100 µM (inactive) | > 100 µM (inactive) | > 100 µM (inactive) | – | – | – | – | – |
| O=C1C=C(Nc2ccccc2C(=O)c2ccccc2)c2ccccc2C1=O | 5.85 µM (inactive) | > 100 µM (inactive) | > 100 µM (inactive) | 89.3 µM (inactive) | > 100 µM (inactive) | 51.6 µM (inactive) | 8.04 µM (inactive) | > 100 µM (inactive) | 4.06 µM (inactive) | 48.1 µM (inactive) | > 100 µM (inactive) | > 100 µM (inactive) | 71 µM (inactive) | – | – | – | – | – |
| [O-][n+]1onc(-c2ccccc2)c1-c1no[n+]([O-])c1-c1c(-c2ccccc2)no[n+]1[O-] | 13.1 µM (inactive) | 74.1 µM (inactive) | 24.1 µM (inactive) | 2.94 µM (inactive) | 43.8 µM (inactive) | 3.03 µM (inactive) | 12.6 µM (inactive) | 14.9 µM (inactive) | 10.6 µM (inactive) | 2.7 µM (inactive) | – | 3.3 µM (inactive) | 3.27 µM (inactive) | 2.58 µM (inactive) | 15.8 µM (inactive) | 3.98 µM (inactive) | 3.23 µM (inactive) | 2.34 µM (inactive) |
| CCn1c2ccccc2c2c(-c3ccccc3)cc3c(c21)C(=O)N(c1ccccc1)C3=O | > 100 µM (inactive) | > 100 µM (inactive) | > 100 µM (inactive) | > 100 µM (inactive) | > 100 µM (inactive) | – | > 100 µM (inactive) | > 10 µM (inactive) | 34.4 µM (inactive) | > 100 µM (inactive) | > 100 µM (inactive) | 95.5 µM (inactive) | 36.6 µM (inactive) | – | – | – | – | – |
| COC(=O)C1=C(c2cc(OC)c(OC)c(OC)c2)O[C@H](c2ccc3c(c2)OCO3)[C@H]1COC(C)=O | 40.7 µM (inactive) | 18.3 µM (inactive) | 39.3 µM (inactive) | 29 µM (inactive) | 23.1 µM (inactive) | 24.2 µM (inactive) | – | 21.5 µM (inactive) | 7.24 µM (inactive) | 7.35 µM (inactive) | 27.2 µM (inactive) | – | 30.5 µM (inactive) | – | – | – | – | – |
| CN1CCc2ccccc2C(C(=O)c2ccc3c(c2)OCO3)C1=O (stereo unspecified) | 90.2 µM (inactive) | – | > 100 µM (inactive) | 89.3 µM (inactive) | > 100 µM (inactive) | > 100 µM (inactive) | > 100 µM (inactive) | > 100 µM (inactive) | > 100 µM (inactive) | – | > 100 µM (inactive) | > 100 µM (inactive) | > 100 µM (inactive) | – | – | – | – | – |
| CCOC(=O)C(CCCNC(=O)OC(C)(C)C)N(Cc1ccc(OC)cc1OC)C(=O)CC(=O)CP(=O)(OCC)OCC (stereo unspecified) | > 100 µM (inactive) | > 100 µM (inactive) | > 100 µM (inactive) | > 100 µM (inactive) | > 100 µM (inactive) | > 100 µM (inactive) | > 100 µM (inactive) | > 100 µM (inactive) | 16.2 µM (inactive) | 42.7 µM (inactive) | > 100 µM (inactive) | > 100 µM (inactive) | > 100 µM (inactive) | – | – | – | – | – |
| Cc1c(CC/C(=N\Nc2ccc([N+](=O)[O-])cc2[N+](=O)[O-])c2ccccc2)c2ccccc2n1C | > 100 µM (inactive) | > 100 µM (inactive) | > 100 µM (inactive) | > 100 µM (inactive) | > 100 µM (inactive) | 20.7 µM (inactive) | > 100 µM (inactive) | > 100 µM (inactive) | 97.7 µM (inactive) | – | > 100 µM (inactive) | > 100 µM (inactive) | > 100 µM (inactive) | – | – | – | – | – |

— ChEMBL document CHEMBL1201862, “PubChem BioAssay data set” (2004)
